This is an account of results in publication PMC6837752, “Effectiveness of four types of neuraminidase inhibitors approved in Japan for the treatment of influenza” (PLoS ONE, 2019).

“And” between values parts separate entries of the source, which are not always exact repeats. Identical values can stand only once.

Assay [1] concerns influenza A/H1N1pdm09, A/H3N2, and B viruses. Put plainly: Fever duration after NAI treatment in outpatients with laboratory confirmed influenza (observational study). The conditions noted are these: for HR (Cox proportional hazards model of fever duration): multivariable analysis, compared to oseltamivir (reference 1.00); for Mean fever duration after NAI treatment: univariate analysis, all patients aged <20 years, all types/subtypes, from start of treatment to <37.5 °C. Type of assay: in vivo, human.

Assay [2] has as its system oseltamivir-sensitive influenza A/H1N1pdm09 virus. Type of assay: in vivo. Particulars: oseltamivir-treated patients 0–5 years, oseltamivir-sensitive viruses, n = 111.
For another assay, the system named is influenza B. The conditions noted are these: patients aged 5 to 18 years, cited from earlier work.

`CCOC(=O)C1=C[C@@H](OC(CC)CC)[C@H](NC(C)=O)[C@@H](N)C1` [Oseltamivir, oseltamivir]: the Average fever duration in assay [1] (age group 0 to 5 years) was 42.2 h; in assay [1] (age group 6 to 9 years), 37.3 h; in assay [1] (age group 10 to 19 years) it was 29.8 h; in assay [2] it was 40 h and 40 ± 27 h. Also, the “HR (Cox proportional hazards model of fever duration)” value (“HR” for short) in assay [1] is given as 1.00. Moreover, in assay [1], the “Mean fever duration after NAI treatment” value turned out to be 40.1 h.

With `CC(=O)N[C@H]1[C@H]([C@H](O)[C@H](O)CO)OC(C(=O)O)=C[C@@H]1N=C(N)N` [Zanamivir, zanamivir], the Average fever duration in assay [1] (age group 0 to 5 years) was 45.4 h; in assay [1] (age group 6 to 9 years), 42.3 h; in assay [1] (age group 10 to 19 years) it was 35.4 h. Moreover, in assay [1], the “HR” value is recorded as 0.87. For the same compound, the “Mean fever duration after NAI treatment” value in assay [1] was determined as 38.5 h.

Consider `[H]/N=C(\N)N[C@H]1C=C(C(=O)O)O[C@@H]([C@H](OC)[C@H](O)CO)[C@@H]1NC(C)=O` [Laninamivir, laninamivir], for which the values for the Average fever duration in assay [1] (age group 0 to 5 years), in assay [1] (age group 6 to 9 years) and in assay [1] (age group 10 to 19 years) were 75.8 h, 42.9 h and 36.6 h, respectively. In addition, the “HR” value in assay [1] turned out to be 0.78. In assay [1], the “Mean fever duration after NAI treatment” value stood at 39.8 h. Also, the “Median fever duration longer than for peramivir” value in the assay with influenza B (P <0.01) is 1 days. Moreover, the “Median fever duration after treatment” value with influenza B was 3 days.

Consider peramivir, for which the Average fever duration in assay [1] (age group 0 to 5 years) worked out at 46.3 h; in assay [1] (age group 6 to 9 years), 31.3 h; in assay [1] (age group 10 to 19 years), 32.3 h. For the same compound, in assay [1], the “HR” value came to 1.05. The “Mean fever duration after NAI treatment” value in assay [1] is 38.3 h.
